From PubChem BioAssay (NCI) come the findings set out here.

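Assay format: 96-well plates, 48-hour exposure. TGI: concentration producing complete growth inhibition.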

Test systems include HOP-62 NSCLC; NCI/ADR-RES ovarian; CAKI-1 renal; MCF7 breast; HCT-116 colon; OVCAR-3 ovarian; SN12C renal; TK-10 renal; MOLT-4 leukemia; LOX IMVI melanoma; CCRF-CEM leukemia; SK-OV-3 ovarian; U251 CNS; UACC-257 melanoma; EKVX NSCLC; MDA-N; MDA-MB-231 breast; SR leukemia.
Experiment in all cases: DTP human tumour cell line panel, 48 h

Regarding `COC(=O)[C@H](Cc1ccccc1)NC(=O)N1CCCN(C(=O)N[C@@H](Cc2ccccc2)C(=O)OC)CCCN(C(=O)N[C@@H](Cc2ccccc2)C(=O)OC)CCC1`, the TGI – broadly, the concentration giving total growth inhibition – with HOP-62 NSCLC is 35.5 µM; in the assay on NCI/ADR-RES ovarian, 74.7 µM; in the assay on CAKI-1 renal, > 100 µM; in the assay on MCF7 breast, 49.3 µM; in the assay with HCT-116 colon it was 38.9 µM; in the assay with OVCAR-3 ovarian, 32.4 µM. Also, the TGI with SN12C renal was determined as 39.1 µM; in the assay on TK-10 renal, 65.4 µM; in the assay on MOLT-4 leukemia it was 40.8 µM; in the assay on LOX IMVI melanoma it was 29.8 µM; with CCRF-CEM leukemia, 92.8 µM; in the assay with SK-OV-3 ovarian, 73.9 µM. Further, the TGI in the assay with U251 CNS worked out at 32.8 µM; in the assay with UACC-257 melanoma, 35.5 µM; with EKVX NSCLC, 53.5 µM; in the assay on MDA-N it was 45.8 µM.

For `COCO[C@@H]1C[C@H]2C(=O)N(COC)c3ccccc3C(=O)N2C1`, the TGI with HOP-62 NSCLC, in the assay on NCI/ADR-RES ovarian, in the assay with CAKI-1 renal, in the assay on MCF7 breast, in the assay on HCT-116 colon and in the assay on SN12C renal was > 100 µM each time. In addition, the TGI with TK-10 renal, with MOLT-4 leukemia, with LOX IMVI melanoma, in the assay with CCRF-CEM leukemia, with SK-OV-3 ovarian and in the assay with U251 CNS was > 100 µM throughout. In addition, the TGI with UACC-257 melanoma, in the assay on MDA-MB-231 breast, in the assay on EKVX NSCLC and in the assay with MDA-N was > 100 µM each time.

As to `C/C(=C\c1ccccc1)C(=O)NCc1ccc(C(=O)NCCC(C)C)cc1`, the TGI in the assay with HOP-62 NSCLC was 48 µM; with NCI/ADR-RES ovarian, > 100 µM; in the assay on CAKI-1 renal, > 100 µM; in the assay with MCF7 breast it was > 100 µM; in the assay on HCT-116 colon it was > 100 µM; in the assay with OVCAR-3 ovarian it was > 100 µM. Moreover, the TGI is > 100 µM in the assay with SN12C renal; > 100 µM in the assay with TK-10 renal; > 100 µM with MOLT-4 leukemia; > 100 µM with LOX IMVI melanoma; > 100 µM with CCRF-CEM leukemia; 94.6 µM with SK-OV-3 ovarian. The TGI with U251 CNS, in the assay with UACC-257 melanoma, with MDA-MB-231 breast, in the assay on EKVX NSCLC and in the assay with MDA-N was > 100 µM throughout.

As for `O=c1[nH]cnc2c1sc1nc3ccccc3n12`, the TGI in the assay with HOP-62 NSCLC, with NCI/ADR-RES ovarian, with CAKI-1 renal, with MCF7 breast, in the assay on HCT-116 colon and in the assay with OVCAR-3 ovarian was > 100 µM throughout. Also, the TGI with TK-10 renal, in the assay on MOLT-4 leukemia, in the assay on LOX IMVI melanoma, with CCRF-CEM leukemia, in the assay on SK-OV-3 ovarian and in the assay on U251 CNS was > 100 µM throughout. The TGI with UACC-257 melanoma, in the assay with MDA-MB-231 breast, in the assay on EKVX NSCLC and in the assay with MDA-N was > 100 µM throughout.

Consider `CC1=NNC(=O)C1C1CC(c2c[nH]c3ccccc23)=NNC1=S` (stereo not drawn), for which the TGI in the assay with HOP-62 NSCLC, with NCI/ADR-RES ovarian, with CAKI-1 renal, in the assay on HCT-116 colon, in the assay on OVCAR-3 ovarian and in the assay with SN12C renal was > 100 µM throughout. Also, the TGI in the assay on TK-10 renal, in the assay with MOLT-4 leukemia, in the assay on CCRF-CEM leukemia, in the assay on SK-OV-3 ovarian, in the assay with U251 CNS and in the assay with UACC-257 melanoma was > 100 µM each time. Besides, the TGI in the assay on MDA-MB-231 breast, with EKVX NSCLC and in the assay on MDA-N was > 100 µM each time.

Turning to `c1ccc2c(c1)Nc1ccccc1[P+]21c2ccccc2Nc2ccccc21`, the TGI with HOP-62 NSCLC is 1.58 µM; in the assay on NCI/ADR-RES ovarian, > 100 µM; in the assay on CAKI-1 renal, 11.2 µM; in the assay with HCT-116 colon it was 1.05 µM; with SR leukemia, 1.4 µM; in the assay with OVCAR-3 ovarian, 0.612 µM. In addition, the TGI with SN12C renal came to 0.631 µM; in the assay with TK-10 renal, 5.93 µM; in the assay with MOLT-4 leukemia, 1.11 µM; in the assay on LOX IMVI melanoma, 2.23 µM; in the assay on CCRF-CEM leukemia, 0.85 µM; in the assay with SK-OV-3 ovarian it was 0.869 µM. In addition, the TGI with U251 CNS came to 1.4 µM; in the assay on MDA-MB-231 breast it was 0.588 µM; in the assay on EKVX NSCLC, 2.74 µM; in the assay with MDA-N, 1.11 µM.

In the case of `O=[N+]([O-])c1ccc(-c2nc3ccc([N+](=O)[O-])cc3[nH]2)cc1`, the TGI in the assay with HOP-62 NSCLC is 97 µM; in the assay on NCI/ADR-RES ovarian, 57.6 µM; in the assay with CAKI-1 renal, > 100 µM; in the assay on MCF7 breast it was > 100 µM; in the assay on HCT-116 colon, 38.3 µM; in the assay with SR leukemia it was > 100 µM. For the same compound, the TGI in the assay on OVCAR-3 ovarian was > 100 µM; in the assay on SN12C renal, > 100 µM; with TK-10 renal it was > 100 µM; in the assay with MOLT-4 leukemia, > 100 µM; in the assay with LOX IMVI melanoma, 67.8 µM; in the assay with SK-OV-3 ovarian, > 100 µM. For the same compound, the TGI in the assay on U251 CNS was 70.1 µM; in the assay with UACC-257 melanoma it was > 100 µM; in the assay with EKVX NSCLC, > 100 µM; with MDA-N it was > 100 µM.

As for `CCOc1ccc(Nc2nc3c(s2)C(=O)c2ccccc2C3=O)cc1`, the TGI turned out to be 32 µM in the assay on HOP-62 NSCLC; 20.7 µM in the assay on CAKI-1 renal; 38.4 µM with MCF7 breast; 33.2 µM in the assay with HCT-116 colon; 12.9 µM in the assay on OVCAR-3 ovarian; 13.5 µM in the assay with SN12C renal. Besides, the TGI is 36.3 µM in the assay with TK-10 renal; > 100 µM in the assay on MOLT-4 leukemia; 15.8 µM with LOX IMVI melanoma; > 100 µM with CCRF-CEM leukemia; 34.3 µM with SK-OV-3 ovarian; 20.7 µM with U251 CNS. Further, the TGI in the assay with UACC-257 melanoma came to 27.4 µM; with MDA-MB-231 breast it was 18.4 µM; with EKVX NSCLC, 50.4 µM; in the assay on MDA-N, 3.69 µM.
